{"source": "patent US20050215607A1", "about": "“Drug composition for prevention or inhibition of advance of diabetic complication” (priority 2002, published 2005)", "key": {"[1]": {"test_system": "type II diabetic patients", "experiment": "Clinical study in type II diabetic patients", "type": "in vivo, human", "conditions": "for Change in HbA1C value, mean value: three times a day just before meals; for Change in 1 hour value of postprandial plasma glucose (PPG), mean value / Change in 2 hour value of postprandial plasma glucose (PPG), mean value / Change in early morning fasting plasma glucose (FPG), mean: at the final evaluation", "procedure": "Using the pharmaceutical composition described in Example 1, a clinical study was conducted in type II diabetic patients under the following conditions.\nTest drug and Mode of administration: Every patient orally administered either of a combination selected from the following combination groups (one tablet from each) three times a day just before meals (within 5 minutes before starting meal): • The present invention group: (1)+(4) • Positive control group: (2)+(3) • Positive control group: (3)+(4) • (1) a tablet comprising 10 mg of mitiglinide calcium salt hydrate; • (2) a tablet comprising 0.2 mg of voglibose (chemical name: (+)-1L-[1(OH),2,4,5/3]-5-[2-hydroxy-1-(hydroxymethyl)-ethyl]amino-1-C-(hydroxymethyl)-1,2,3,4-cyclohexaneterol); • (3) a placebo tablet of mitiglinide calcium salt hydrate not containing any active ingredient; and • (4) a placebo tablet of voglibose not containing any active ingredient. • Treatment period: 12 weeks\nObservation item: The following items were measured before administration, at a certain fixed time after the start of administration and at the completion of administration, and their changes were calculated, or the frequency of adverse drug reactions was calculated, and then evaluated."}, "healthy male adults": {"test_system": "healthy male adults", "experiment": "Clinical study on administration timing", "type": "in vivo, human", "procedure": "Administration timing before taking a meal was evaluated in healthy male adults. Used test drugs were a tablet comprising 10 mg of mitiglinide calcium salt hydrate and a placebo tablet. The tablet comprising 10 mg of mitiglinide calcium salt hydrate was administered at 0.5 min, 5 min, 10 min or 30 min before starting meal (Positive group), while the placebo tablet was administered at 0.5 min before starting meal. After administration, blood glucose levels were measured at starting meal and evaluated."}, "[2]": {"experiment": "Disposition (half-life) of mitiglinide", "conditions": "human, in vivo, oral; single dose of 5 mg and more"}, "[3]": {"experiment": "Required single dose to reduce HbA1C value", "type": "in vivo", "conditions": "as a single dose"}, "[4]": {"conditions": "in comparison with voglibose and placebo"}}, "note": "Structures can show the parent of a compound that is named as a salt.", "data": [{"compound": "O=C(O)[C@H](CC(=O)N1C[C@H]2CCCC[C@H]2C1)Cc1ccccc1", "note": "[Mitiglinide calcium salt hydrate, (+)-monocalcium bis[(2S, 3a, 7a-cis)-α-benzylhexahydro-γ-oxo-2-isoindolinebutyrate] dihydrate]", "values": [{"measurement": "Change in HbA1C value, mean value", "setting": "[1]; 4 weeks", "result": "−0.30", "unit": "%"}, {"measurement": "Change in HbA1C value, mean value", "setting": "[1]; 8 weeks", "result": "−0.46", "unit": "%"}, {"measurement": "Change in HbA1C value, mean value", "setting": "[1]; 12 weeks", "result": "−0.46", "unit": "%"}, {"measurement": "HbA1C value (result in words)", "setting": "[1]; after 4 weeks after the start of administration, in comparison with voglibose and placebo", "result": "significantly lowered"}, {"measurement": "Change in 1 hour value of postprandial plasma glucose (PPG), mean value", "setting": "[1]; treatment period 12 weeks", "result": -53.1, "unit": "mg/dL"}, {"measurement": "Change in 2 hour value of postprandial plasma glucose (PPG), mean value", "setting": "[1]; treatment period 12 weeks", "result": -50.1, "unit": "mg/dL"}, {"measurement": "Change in early morning fasting plasma glucose (FPG), mean", "setting": "[1]; treatment period 12 weeks", "result": -8.0, "unit": "mg/dL"}, {"measurement": "frequencies of hypoglycemic symptoms and gastrointestinal disorders (result in words)", "setting": "[1]; human, in vivo", "result": "decreased"}, {"measurement": "Frequency of adverse drug reactions: gastrointestinal disorder", "setting": "[1]; human, in vivo, 12 weeks", "result": 17.6, "unit": "%"}, {"measurement": "Frequency of adverse drug reactions: hypoglycemic symptoms", "setting": "[1]; human, in vivo, 12 weeks", "result": 2.0, "unit": "%"}, {"measurement": "1 hour and 2 hour values of postprandial plasma glucose (PPG) (result in words)", "setting": "[1]; [4]", "result": "significantly lowered"}, {"measurement": "early morning fasting plasma glucose (FPG) (result in words)", "setting": "[1]; [4]", "result": "significantly lowered"}, {"measurement": "Change in HbA1C value, mean value", "setting": "[1]; the final evaluation", "result": "−0.44", "unit": "%"}, {"measurement": "Blood glucose level at starting meal, mean", "setting": "healthy male adults; 10 mg tablet administered 0.5 min before starting meal", "result": 87.0, "unit": "mg/dL"}, {"measurement": "Blood glucose level at starting meal, mean", "setting": "healthy male adults; 10 mg tablet administered 5 min before starting meal", "result": 83.8, "unit": "mg/dL"}, {"measurement": "Blood glucose level at starting meal, mean", "setting": "healthy male adults; 10 mg tablet administered 10 min before starting meal", "result": 84.2, "unit": "mg/dL"}, {"measurement": "Blood glucose level at starting meal, mean", "setting": "healthy male adults; 10 mg tablet administered 30 min before starting meal", "result": 55.7, "unit": "mg/dL"}, {"measurement": "blood glucose level at starting meal (result in words)", "setting": "healthy male adults; administered at 30 minutes before starting meal", "result": "notably declined"}, {"measurement": "blood glucose level at starting meal (result in words)", "setting": "healthy male adults; administered within 10 minutes before starting meal", "result": "able to maintain good blood glucose level"}]}, {"compound": "O=C(O)[C@H](CC(=O)N1C[C@H]2CCCC[C@H]2C1)Cc1ccccc1", "note": "[mitiglinide]", "values": [{"measurement": "half-life", "setting": "[2]", "result": "~1.5", "unit": "h"}, {"measurement": "required dosage to reduce HbA1C value significantly", "setting": "[3]", "result": "≥ 5", "unit": "mg"}]}, {"compound": "OCC(CO)N[C@H]1C[C@](O)(CO)[C@@H](O)[C@H](O)[C@H]1O", "note": "[voglibose, (+)-1L-[1(OH),2,4,5/3]-5-[2-hydroxy-1-(hydroxymethyl)-ethyl]amino-1-C-(hydroxymethyl)-1,2,3,4-cyclohexaneterol, reference compound]", "values": [{"measurement": "Change in HbA1C value, mean value", "setting": "[1]; 4 weeks", "result": "−0.14", "unit": "%"}, {"measurement": "Change in HbA1C value, mean value", "setting": "[1]; 8 weeks", "result": "−0.14", "unit": "%"}, {"measurement": "Change in HbA1C value, mean value", "setting": "[1]; 12 weeks", "result": "−0.11", "unit": "%"}, {"measurement": "Change in 1 hour value of postprandial plasma glucose (PPG), mean value", "setting": "[1]; treatment period 12 weeks", "result": -24.8, "unit": "mg/dL"}, {"measurement": "Change in 2 hour value of postprandial plasma glucose (PPG), mean value", "setting": "[1]; treatment period 12 weeks", "result": -5.1, "unit": "mg/dL"}, {"measurement": "Change in early morning fasting plasma glucose (FPG), mean", "setting": "[1]; treatment period 12 weeks", "result": 0.5, "unit": "mg/dL"}, {"measurement": "HbA1C value (result in words)", "setting": "[1]; in comparison with placebo", "result": "significantly lowered"}, {"measurement": "Change in HbA1C value, mean value", "setting": "[1]; the final evaluation", "result": "−0.11", "unit": "%"}, {"measurement": "Frequency of adverse drug reactions: gastrointestinal disorder", "setting": "[1]; treatment period 12 weeks", "result": 24.5, "unit": "%"}, {"measurement": "Frequency of adverse drug reactions: hypoglycemic symptoms", "setting": "[1]; treatment period 12 weeks", "result": 4.5, "unit": "%"}]}]}
